Experimental data taken from patent US20100273770A1, “1, 2, 4 -OXADIAZOLE COMPOUNDS FOR THE TREATMENT OF AUTOIMMUNE DISEASES” (priority 2007, published 2010).
Structures can show the parent of a compound that is named as a salt.

Assays:
human S1P1 receptor = molecular target: T1, human S1P1 receptor (Homo sapiens, UniProt P21453); test: S1P1 GTPγS assay; format: biochemical; conditions: [35S]-GTPγS binding, human S1P1 rat hepatoma (RH7777) membranes, agonist; read-out: pEC50 (S1P1 GTPγS assay) (converted)
T1 construct: expressed in transfected cells; membranes
T1 sequence (P21453 whole entry): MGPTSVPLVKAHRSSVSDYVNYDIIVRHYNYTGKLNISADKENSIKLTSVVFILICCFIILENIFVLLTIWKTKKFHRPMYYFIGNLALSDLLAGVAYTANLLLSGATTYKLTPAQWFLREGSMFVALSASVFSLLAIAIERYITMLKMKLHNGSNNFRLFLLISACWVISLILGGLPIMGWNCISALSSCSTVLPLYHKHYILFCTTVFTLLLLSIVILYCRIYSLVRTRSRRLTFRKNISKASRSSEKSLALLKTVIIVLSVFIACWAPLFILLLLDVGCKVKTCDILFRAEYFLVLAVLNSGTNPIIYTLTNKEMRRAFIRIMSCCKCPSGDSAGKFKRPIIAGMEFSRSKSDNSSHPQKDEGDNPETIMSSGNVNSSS
Procedure: (§1) For membrane preparations all steps were performed at 4° C. Rat hepatoma cells stably expressing the human S1P1 receptor or Rat Basophilic Leukaemia cells (RBL) stably expressing human S1P3 receptor were grown to 80% confluency before being harvested into 10 ml Phospho-Buffered Saline (PBS) and centrifuged at 1200 rpm for 5 minutes. After removal of the supernatant, the pellet was re-suspended and cells were homogenised within a glass Waring blender for 2 bursts of 15 secs in 200 mls of buffer (50 mM HEPES, 1 mM leupeptin, 25 μg/ml bacitracin, 1 mM EDTA, 1 mM PMSF, 2 μM pepstatin A). The blender was plunged into ice for 5 mins after the first burst and 10-40 mins after the final burst to allow foam to dissipate. The material was then spun at 500 g for 20 mins and the supernatant spun for 36 mins at 48,000 g. The pellet was resuspended in the same buffer as above but without PMSF and pepstatin A. The material was then forced through a 0.6 mm needle, made up to the required volume, (usually ×4 the volume of the original cell pellet), aliquoted and stored frozen at −80° C.
as §1, with “All” for “For membrane preparations all”, “Cells” for “Rat hepatoma cells stably expressing the human S1P1 receptor or Rat Basophilic Leukaemia cells (RBL) stably expressing human S1P3 receptor were grown to 80% confluency before being harvested into 10 ml Phospho-Buffered Saline (PBS) and centrifuged at 1200 rpm for 5 minutes. After removal of the supernatant, the pellet was re-suspended and cells”
Human S1P1 rat hepatoma membranes (1.5 μg/well) were adhered to a wheatgerm agglutinin (WGA)-coated scintillation proximity assay (SPA) beads (0.125 mg/well) in assay buffer (HEPES 20 mM, MgCl2 10 mM, NaCl 100 mM and pH adjusted to 7.4 using KOH 5M, GDP 10 μM FAC (final assay concentration) and saponin 90 μg/ml FAC was also added).
(§2) After 30 minutes pre-coupling on ice the bead and membrane suspension was dispensed into a white Greiner polypropylene LV384-well plate (5 μl/well), containing 0.1 μl of the compound. 5 μl/well [^35S]-GTPγS (0.5 nM final radioligand conc) made up in assay buffer was then added to agonist plates. The final assay cocktail (10.1 μl) was then centrifuged at 1000 rpm for 5 minutes then read immediately on a Viewlux reader.
(§3) All test compounds were dissolved in DMSO at a concentration of 10 mM and were prepared in 100% DMSO using a 1 in 4 dilution step to provide 11 point dose response curves. The dilutions were transferred to the assay plates ensuring that the DMSO concentration was constant across the plate for all assays.
(§4) All data was normalized to the mean of 16 high and 16 low control wells on each plate. A four parameter curve fit was then applied.
(§5) S1P1 expressing RH7777 membranes (1.5 μg/well) membranes (1.5 μg/well) were homogenised by passing through a 23G needle. These were then adhered to WGA-coated SPA beads (0.125 mg/well) in assay buffer (HEPES 20 mM, MgCl2 10 mM, NaCl 100 mM and pH adjusted to 7.4 using KOH 5M). GDP 10 μM FAC and saponin 90 μg/ml FAC were also added
(§6) After 30 minutes precoupling on ice, the bead and membrane suspension was dispensed into white Greiner polypropylene LV 384-well plates (5 μl/well), containing 0.1 μl of compound. 5 μl/well [^35S]-GTPγS (0.5 nM for S1P1 or 0.3 nM for S1P3 final radioligand concentration) made in assay buffer was then added to the plates. The final assay cocktail (10.1 μl) was then sealed, spun on a centrifuge, then read immediately on a Viewlux instrument.

human S1P3 receptor = molecular target: T2, human S1P3 receptor (Homo sapiens, UniProt Q99500); test: S1P3 GTPγS assay; format: biochemical; conditions: [35S]-GTPγS binding, S1P3 RBL-2H3 membranes, agonist; read-out: pEC50 (S1P3 GTPγS assay) (converted)
T2 construct: expressed in transfected cells; membranes
T2 sequence (Q99500 whole entry): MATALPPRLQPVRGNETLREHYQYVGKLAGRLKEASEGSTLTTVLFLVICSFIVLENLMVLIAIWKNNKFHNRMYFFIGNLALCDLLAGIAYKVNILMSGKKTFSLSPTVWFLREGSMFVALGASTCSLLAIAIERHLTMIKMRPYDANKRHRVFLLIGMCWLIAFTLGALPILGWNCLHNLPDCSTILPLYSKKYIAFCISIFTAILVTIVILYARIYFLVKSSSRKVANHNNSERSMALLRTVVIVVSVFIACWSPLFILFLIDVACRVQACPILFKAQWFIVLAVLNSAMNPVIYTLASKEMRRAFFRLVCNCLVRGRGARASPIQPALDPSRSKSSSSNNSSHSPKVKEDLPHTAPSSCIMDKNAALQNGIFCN
Procedure: as §1
S1P3 membranes from rat basophilic leukaemia cells (RBL-2H3)(1.5 μg/well) were adhered to WGA-coated SPA beads (0.125 mg/well) in assay buffer (HEPES 20 mM, MgCl2 3 mM, NaCl 100 mM and pH adjusted to 7.4 using KOH 5M), GDP 10 μM FAC and saponin 90 μg/ml FAC was also added).
as §2, with “μl) was centrifuged at” for “μl) was then centrifuged at”
as §3, §4
as §5, with “S1P3” for “S1P1”, “RBL” for “RH7777 membranes (1.5 μg/well)”
as §6

circulating lymphocytes = conditions: animals and man; cited from earlier work
[1] = clinical studies, first 24 hours of treatment; cited from earlier work

Row | Compound | EC50 (human S1P1 receptor) [µM] | EC50 (human S1P3 receptor) [µM] | effect on circulating lymphocytes (circulating lymphocytes) | bradycardia on treatment [1]
1 | CC(C)Oc1ccc(-c2nc(-c3ccc4c(c3)CNC(CCC(=O)O)CO4)no2)cc1Cl (centres unmarked) [Example 6, 3-[7-(5-{3-Chloro-4-[(1-methylethyl)oxy]phenyl}-1,2,4-oxadiazol-3-yl)-2,3,4,5-tetrahydro-1,4-benzoxazepin-3-yl]propanoic acid hydrochloride] | < 0.01 | – | – | –
2 | CC(C)Oc1ccc(-c2nc(-c3cccc4c3OCCNC4CC(=O)O)no2)cc1C#N (centres unmarked) [Example 8, [9-(5-{3-cyano-4-[(1-methylethyl)oxy]phenyl}-1,2,4-oxadiazol-3-yl)-2,3,4,5-tetrahydro-1,4-benzoxazepin-5-yl]acetic acid] | – | > 10 | – | –
3 | CC(C)Oc1ccc(-c2nc(-c3ccc4c(c3)CCCNC4CCC(N)=O)no2)cc1Cl (centres unmarked) [Example 1, 3-[7-(5-{3-chloro-4-[(1-methylethyl)oxy]phenyl}-1,2,4-oxadiazol-3-yl)-2,3,4,5-tetrahydro-1H-2-benzazepin-1-yl]propanamide] | – | > 10 | – | –
4 | CC(C)Oc1ccc(-c2nc(-c3cccc4c3OCCNC4CC(=O)O)no2)cc1Cl (centres unmarked) [Example 7, [9-(5-{3-Chloro-4-[(1-methylethyl)oxy]phenyl}-1,2,4-oxadiazol-3-yl)-2,3,4,5-tetrahydro-1,4-benzoxazepin-5-yl]acetic acid hydrochloride] | < 0.1 | > 10 | – | –
5 | CCCCCCCCc1ccc(CCC(N)(CO)CO)cc1 [FTY720] | – | – | reduce circulating lymphocytes | bradycardia in the first 24 hours of treatment
6 | CC(C)Oc1ccc(-c2nc(-c3ccc4c(c3)CNC(C(=O)O)CO4)no2)cc1Cl (centres unmarked) [Example 5, 7-(5-{3-Chloro-4-[(1-methylethyl)oxy]phenyl}-1,2,4-oxadiazol-3-yl)-2,3,4,5-tetrahydro-1,4-benzoxazepine-3-carboxylic acid hydrochloride] | < 0.1 | – | – | –
7 | CC(C)Oc1ccc(-c2nc(-c3ccc4c(c3)CCCNC4CCCO)no2)cc1Cl (centres unmarked) [Example 3, 3-[7-(5-{3-Chloro-4-[(1-methylethyl)oxy]phenyl}-1,2,4-oxadiazol-3-yl)-2,3,4,5-tetrahydro-1H-2-benzazepin-1-yl]-1-propanol hydrochloride] | – | > 10 | – | –
8 | CC(C)Oc1ccc(-c2nc(-c3ccc4c(c3)CCCNC4CCC(=O)O)no2)cc1Cl (centres unmarked) [Example 2, 3-[7-(5-{3-Chloro-4-[(1-methylethyl)oxy]phenyl}-1,2,4-oxadiazol-3-yl)-2,3,4,5-tetrahydro-1H-2-benzazepin-1-yl]propanoic acid hydrochloride] | – | > 10 | – | –

More lines, main results first:

Row | EC50 (human S1P1 receptor) [µM] | EC50 (human S1P3 receptor) [µM] | Compound | effect on circulating lymphocytes (circulating lymphocytes) | bradycardia on treatment [1]
9 | < 0.01 | > 10 | CC(C)Oc1ccc(-c2nc(-c3cccc4c3OCCNC4CCC(=O)O)no2)cc1Cl (centres unmarked) [Example 13, 3-[9-(5-{3-Chloro-4-[(1-methylethyl)oxy]phenyl}-1,2,4-oxadiazol-3-yl)-2,3,4,5-tetrahydro-1,4-benzoxazepin-5-yl]propanoic acid, formic acid salt] | – | –
10 | < 0.1 | > 10 | CC(C)Oc1ncc(-c2nc(-c3cccc4c3OCCNC4CC(=O)O)no2)cc1Cl (centres unmarked) [Example 9, [9-(5-{5-Chloro-6-[(1-methylethyl)oxy]-3-pyridinyl}-1,2,4-oxadiazol-3-yl)-2,3,4,5-tetrahydro-1,4-benzoxazepin-5-yl]acetic acid] | – | –
11 | < 0.01 | > 10 | CC(C)Oc1ccc(-c2nc(-c3cccc4c3OCCNC4CCCC(=O)O)no2)cc1Cl (centres unmarked) [Example 12, 4-[9-(5-{3-chloro-4-[(1-methylethyl)oxy]phenyl}-1,2,4-oxadiazol-3-yl)-2,3,4,5-tetrahydro-1,4-benzoxazepin-5-yl]butanoic acid hydrochloride] | – | –
12 | < 0.01 | – | CC(C)Oc1ccc(-c2nc(-c3cccc4c3OCCNC4CCC(=O)O)no2)cc1C#N (centres unmarked) [Example 14, 3-[9-(5-{3-cyano-4-[(1-methylethyl)oxy]phenyl}-1,2,4-oxadiazol-3-yl)-2,3,4,5-tetrahydro-1,4-benzoxazepin-5-yl]propanoic acid, formic acid salt] | – | –
13 | < 0.1 | – | CC(C)Oc1ncc(-c2nc(-c3cccc4c3OCCNC4CCCC(=O)O)no2)cc1Cl (centres unmarked) [Example 11, 4-[9-(5-{5-chloro-6-[(1-methylethyl)oxy]-3-pyridinyl}-1,2,4-oxadiazol-3-yl)-2,3,4,5-tetrahydro-1,4-benzoxazepin-5-yl]butanoic acid hydrochloride] | – | –
14 | < 0.1 | > 10 | CC(C)Oc1ccc(-c2nc(-c3cccc4c3OCCNC4CCCC(=O)O)no2)cc1C#N (centres unmarked) [Example 10, 4-[9-(5-{3-cyano-4-[(1-methylethyl)oxy]phenyl}-1,2,4-oxadiazol-3-yl)-2,3,4,5-tetrahydro-1,4-benzoxazepin-5-yl]butanoic acid hydrochloride salt] | – | –
